Laboratory results: patent US20160024092A1, “INTRAVENOUS FORMULATIONS OF NEUROKININ-1 ANTAGONISTS” (OPKO Health, Inc., priority 2009, published 2016)
≈ marks a conversion by molar mass, not a printed value. Like-named read-outs stand apart in the source and are kept apart here.

How the values were obtained:
[1] = in vivo
pKa of Compound 1 = assay type: physicochemical
red blood cells = experiment: Hemolytic testing in rats after intravenous administration (hemoglobin in urine, Hemastix reagent strips); assay type: in vivo, rat; design: key: Hemastix scale: 0=negative, 1=non-hemolyzed trace … 6=large+++; conditions: 1-2 min slow-hand bolus, 10 mg/mL drug in 22% Solutol HS15, pH 7.0
Description: The term “hemolysis” as used herein means destruction of red blood cells which leads to the release of hemoglobin from within the red blood cells into the blood plasma. Hemolysis can be measured by methods well known in the art, e.g., Hemastix® reagent strips (Bayer Corp., Elkhart, Ind.) which detect blood in urine. The
Hemastix® reagent strips turn from yellow to dark green depending upon the amount of hemoglobin found in the urine. The Hemastix® scale is as follows: 0=negative, 1=non-hemolyzed trace, 3=hemolyzed trace, 4=small+, 5=moderate++, and 6=large+++.
Urine samples from the rats were assessed for hemolysis using Hemastix® reagent strips (No. 2190, Bayer Corp., Elkhart Ind.). […] The Hemastix® reagent strips detect the peroxide-like activity of hemoglobin. The strips turn from yellow to dark green depending upon the amount of hemoglobin found in the urine. The Hemastix® scale is as follows: 0=negative, 1=non-hemolyzed trace, 3=hemolyzed trace, 4=small+, 5=moderate++, and 6=large+++.
The methodology for this study was to administer (into the tail vein of a rat) each formulation over 15 minutes by intravenous infusion using an infusion pump or to administer the formulation within two minutes by bolus route using a syringe. Urine was tested for the presence of free hemoglobin using the pooled urine collection method at the six-hour interval. For the six hour pooled urine collection, rats were dosed and placed in a metabolism cage. Six hour post dose, the rats were euthanized by carbon dioxide over-inhalation, and the urine sample was collected. A minimum of five subjects were tested for each formulation and the urine samples were analyzed for hemolysis using Hemastix® reagent strips as indicated in Comparative Example 2.
[…] If the rat voided any urine in the cage, the urine was analyzed using Hemastix® reagent strips to determine the presence of hemoglobinuria.
The methodology for this example was to administer each formulation over 15 minutes by i.v. infusion using an infusion pump or to administer the formulations within 2 minutes by bolus injection using a syringe and delivering the formulation into the tail vein of a rat. Urine was tested by dipstick for the presence of free hemoglobin using the pooled urine collection method at the 6-hour interval.

[2] = Equilibrium solubility of Compound 1 (HPLC); assay type: physicochemical; conditions: for solubility thermodynamic: thermodynamic from solid, pH 7.0

time at which half concentration is achieved [1]: around 180 hrs | pKa (pKa of Compound 1): 6.9 | solubility thermodynamic ([2]; 16% Captisol (sulfobutyl ether beta-cyclodextrin), aqueous with cosolvent or surfactant or cyclodextrin, 16% Captisol): < 0.006 mg/mL | solubility ([2]; 22% Solutol, aqueous with cosolvent or surfactant or cyclodextrin): 50 mg/mL (≈ 99.9 mM) | solubility thermodynamic ([2]; aqueous with cosolvent or surfactant or cyclodextrin, 20% Solutol): ~50 mg/mL (≈ 99.9 mM) | solubility ([2]; pH 7.4, aqueous buffer, read-out: solubility at the physiological pH of 7.4): < 0.004 mg/mL
Structure (SMILES): C[C@@H](OC[C@@]1(c2ccccc2)CC[C@]2(CCC(=O)N2)CN1)c1cc(C(F)(F)F)cc(C(F)(F)F)c1 [Compound 1, (5S,8S)-8-[{(1R)-1-(3,5-Bis-(trifluoromethyl)phenyl)-ethoxy}-methyl]-8-phenyl-1,7-diazaspiro[4.5]decan-2-one]
Hemolysis (Female rats) (red blood cells; 10 mg/kg, 15 min): 1 | Hemolysis (Male rats) (red blood cells; 10 mg/kg, 15 min): 3 | Hemolysis (Female rats) (red blood cells; 10 mg/kg, 30 min): 1 | Hemolysis (Male rats) (red blood cells; 10 mg/kg, 30 min): 0 | Hemolysis (Female rats) (red blood cells; 10 mg/kg, 60 min): 0 | Hemolysis (Male rats) (red blood cells; 10 mg/kg, 60 min): 0 | Hemolysis (Female rats) (red blood cells; 20 mg/kg, 15 min): 3 | Hemolysis (Male rats) (red blood cells; 20 mg/kg, 15 min): 3 | Hemolysis (Female rats) (red blood cells; 20 mg/kg, 30 min): 0 | Hemolysis (Male rats) (red blood cells; 20 mg/kg, 30 min): 3 | Hemolysis (Female rats) (red blood cells; 20 mg/kg, 60 min): 0 | Hemolysis (Male rats) (red blood cells; 20 mg/kg, 60 min): 0 | Hemolysis (Female rats) (red blood cells; 30 mg/kg, 15 min): 3 | Hemolysis (Male rats) (red blood cells; 30 mg/kg, 15 min): 3 | Hemolysis (Female rats) (red blood cells; 30 mg/kg, 30 min): 2 | Hemolysis (Male rats) (red blood cells; 30 mg/kg, 30 min): 0 | Hemolysis (Female rats) (red blood cells; 30 mg/kg, 60 min): 0 | Hemolysis (Male rats) (red blood cells; 30 mg/kg, 60 min): 0
